{
  "source": "patent US9955689B2",
  "about": "“Method for promoting plant growth” (SUMITOMO CHEMICAL COMPANY, LIMITED, priority 2012, dated 2018)",
  "data": [
    {"tested_on": "Nicotiana benthamiana", "experiment": "Test Example 6: growth promotion under low-temperature stress by hydroponics of Nicotiana benthamiana (0.1 ppm)", "format": "in vivo", "conditions": "compound at 0.1 ppm, 7 days at 1.5±1.0° C. low-temperature stress, then 3 days at 22° C., 5 or greater = growth promotion effect, read-out: value of a relative leaf area (Equation (1), area of green leaf)", "procedure": "Test Example 6. Test for Evaluating Growth Promotion Under Low-Temperature Stress by Hydroponics of Nicotiana benthamiana\n(§1) (Cultivation and Compound Treatment)\n(§2) A DMSO solution, which contained one of the compounds 2, 3, 7, 11 to 13, 20, 23, 24, 30, 38, 39, 41 to 43, 46, 50, 64, 68, 80, 82, 88, 93, 94, 96, 104, 107, and 112 of the present invention at a concentration of 1,000 ppm, was prepared. The DMSO solution of the compound of the present invention was added at a volume ratio of 1/1,000 to the Murashige⋅Scoog medium of a ½-fold concentration (a medium containing 2.3 g of mixed salts (manufactured by Wako Pure Chemical Industries, Ltd.), 200 mg of Myo-inositol (manufactured by Sigme-Aldrich Co. LLC.), 2 mg of niconitic acid (manufactured by Wako Pure Chemical Industries, Ltd.), 2 mg of pyridoxine hydrochloride (manufactured by Wako Pure Chemical Industries, Ltd.), 20 mg of thiamine hydrochloride (manufactured by Wako Pure Chemical Industries, Ltd.), 20 g of sucrose (manufactured by Wako Pure Chemical Industries, Ltd.), and 1 g of MCS (manufactured by DOJINDO LABORATORIES) respectively per 1 L of water and having pH adjusted to 5.8), thereby preparing a medium containing the compound of the present invention at a concentration of 0.1 ppm.\n(§3) Seeds of Nicotiana benthamiana were seeded in the 5 μL of the medium and cultured overnight at 22° C. Thereafter, 45 μL of the medium containing the compound of the present invention at a concentration of 0.1 ppm was added thereto, and the seeds are cultured for 7 days at 22° C. under the conditions of an illuminance of 4,000 lux, and a day length of 16 hours, and the seedlings raised from the Nicotiana benthamiana were treated with the compound. Moreover, instead of the above medium a test plot, which was obtained by performing the same treatment by using a medium prepared by adding DMSO to the Murashige′Scoog medium of ½-fold concentration at a volume ratio of 1/1,000, was used as a control plot not treated with the compound.\n(§4) (Low-Temperature Stress Treatment)\n(§5) The seedlings of the Nicotiana benthamiana treated with the compound were subjected to low-temperature treatment by being cultured for 7 days at 1.5±1.0° C., under the conditions of an illuminance of 2,000 lux, and a day length of 16 hours.\n(§6) The seedlings of the Nicotiana benthamiana having undergone the low-temperature stress treatment were cultured for 3 days at 22° C., under the conditions of an illuminance of 4,000 lux, and a day length of 16 hours. Thereafter, the area of green leaf was quantified by Scanalyzer HTS (manufactured by LemnaTec GmbH). Moreover, the value of the control plot not treated with the compound that had not yet been subjected to the low-temperature stress treatment was measured in the same manner. A value of a relative leaf area was calculated based on the following equation (1), and if the relative value of leaf area was 5 or greater, the compound was evaluated to have a growth promotion effect. As a result of the evaluation, it was confirmed that when the plant was treated with one of the compounds 2, 3, 7, 11 to 13, 20, 23, 24, 30, 38, 39, 41 to 43, 46, 50, 64, 68, 80, 82, 88, 93, 94, 96, 104, 107, and 112 of the present invention at 0.1 ppm, the value of a relative leaf area was 5 or greater, compared to the area of green leaf of the control plot not treated with compound. Accordingly, it was confirmed that the treatment using the compound of the present invention improve a growth promotion effect. Relative leaf area=100*(a green area of a plot treated with the compound of the present invention minus(−) a green area of a plot not treated with the compound of the present invention)/(a green area of a control plot not treated with the compound of the present invention that had not yet been subjected to low-temperature stress treatment minus(−) green area of a control plot not treated with the compound of the present invention) Equation (1): […]", "units": {"relative green leaf area at 0.1 ppm": "%"}, "values": [
      {"compound": "O=C(O)c1cc2cc(C(F)(F)F)cc(Cl)c2s1", "note": "[Present compound 104, 7-chloro-5-trifluoromethylbenzo[b]thiophene-2-carboxylic acid]", "relative green leaf area at 0.1 ppm": "≥ 5"},
      {"compound": "COc1c(C(=O)O)sc2ccc(C(F)(F)F)cc12", "note": "[Present compound 112, 3-methoxy-5-trifluoromethylbenzo[b]thiophene-2-carboxylic acid]", "relative green leaf area at 0.1 ppm": "≥ 5"},
      {"compound": "C=Cc1ccc2cc(C(=O)O)sc2c1", "note": "[Present compound 30, 6-vinylbenzo[b]thiophene-2-carboxylic acid]", "relative green leaf area at 0.1 ppm": "≥ 5"},
      {"compound": "Cc1cccc2sc(C(=O)O)cc12", "note": "[Present compound 20, 4-methylbenzo[b]thiophene-2-carboxylic acid]", "relative green leaf area at 0.1 ppm": "≥ 5"},
      {"compound": "O=C(O)c1cc2cc(-c3ccc(Cl)cc3)ccc2s1", "note": "[Present compound 39, 5-(4-chlorophenyl)benzo[b]thiophene-2-carboxylic acid]", "relative green leaf area at 0.1 ppm": "≥ 5"},
      {"compound": "O=C(O)c1cc2cc(F)ccc2s1", "note": "[Present compound 2, 5-fluorobenzo[b]thiophene-2-carboxylic acid]", "relative green leaf area at 0.1 ppm": "≥ 5"}
    ]},
    {"tested_on": "Nicotiana benthamiana", "experiment": "Test Example 4: growth promotion under low-temperature stress by hydroponics of Nicotiana benthamiana (10 ppm)", "format": "in vivo", "conditions": "compound at 10 ppm, 7 days at 1.5±1.0° C. low-temperature stress, then 3 days at 22° C., 5 or greater = growth promotion effect, read-out: value of a relative leaf area (Equation (1), area of green leaf)", "procedure": "Test Example 4. Test for Evaluating Growth Promotion Under Low-Temperature Stress by Hydroponics of Nicotiana benthamiana\nas §1\nas §2, with “compounds 4, 5, 6, 8, 14, 17, 19, 22, 26, 45, 51, 53, 57, 59, 65, 69, 70, 75, 77, 79, 91, 97, 99, 101,” for “compounds 2, 3, 7, 11 to 13, 20, 23, 24, 30, 38, 39, 41 to 43, 46, 50, 64, 68, 80, 82, 88, 93, 94, 96, 104, 107,”, “and 110” for “and 112”, “of 10,000” for “of 1,000”, “of MES” for “of MCS”, “of 10” for “of 0.1”\nas §3, with “the […]” for “the 5 μL of the”, “concentration of 10 ppm was” for “concentration of 0.1 ppm was”, “at 22° C., under the” for “at 22° C. under the”, “and the seedling raised from” for “and the seedlings raised from”, “to the Murashige⋅Scoog medium of” for “to the Murashige′Scoog medium of”\nas §4, §5\nas §6, with “22° C., an illuminance” for “22° C., under the conditions of an illuminance”, “value of leafed area was” for “value of leaf area was”, “the compounds 4, 5, 6, 8, 14, 17, 19, 22, 26, 45, 51, 53, 57, 59, 65, […], 69, 70, 75, 77, 79, 91, 97, 99, 101, and 110” for “the compounds 2, 3, 7, 11 to 13, 20, 23, 24, 30, 38, 39, 41 to 43, 46, 50, 64, 68, 80, 82, 88, 93, 94, 96, 104, 107, and 112”, “101, and 110 of the” for “107, and 112 of the”, “invention at 10 ppm, the” for “invention at 0.1 ppm, the”, “treatment minus(−) a green area” for “treatment minus(−) green area”", "units": {"relative green leaf area at 10 ppm": "%"}, "values": [
      {"compound": "O=C(O)c1cc2cc([S+]([O-])C(F)(F)F)ccc2s1", "note": "(stereo not drawn) [Present compound 99, 5-(trifluoromethylsulfinyl)benzo[b]thiophene-2-carboxylic acid]", "relative green leaf area at 10 ppm": "≥ 5"},
      {"compound": "O=C(Nc1ccc2sc(C(=O)O)cc2c1)c1ccccc1", "note": "[Present compound 65, 5-(benzoylamino)benzo[b]thiophene-2-carboxylic acid]", "relative green leaf area at 10 ppm": "≥ 5"},
      {"compound": "O=C(O)c1cc2ccc([N+](=O)[O-])cc2s1", "note": "[Present compound 19, 6-nitrobenzo[b]thiophene-2-carboxylic acid]", "relative green leaf area at 10 ppm": "≥ 5"},
      {"compound": "Cc1ccc2cc(C(=O)O)sc2c1", "note": "[Present compound 22]", "relative green leaf area at 10 ppm": "≥ 5"},
      {"compound": "O=C(c1ccccc1)c1ccc2sc(C(=O)O)cc2c1", "note": "[Present compound 57, 5-benzoylbenzo[b]thiophene-2-carboxylic acid]", "relative green leaf area at 10 ppm": "≥ 5"},
      {"compound": "CC(=O)Nc1c(C(=O)O)sc2ccccc12", "note": "[Present compound 69, 3-acetylamino-benzo[b]-thiophene-2-carboxylic acid]", "relative green leaf area at 10 ppm": "≥ 5"},
      {"compound": "CSc1ccc2sc(C(=O)O)cc2c1", "note": "[Present compound 97, 5-methylthiobenzo[b]thiophene-2-carboxylic acid]", "relative green leaf area at 10 ppm": "≥ 5"},
      {"compound": "O=C(O)c1cc2ccc(OCc3ccc(C(F)(F)F)cc3)cc2s1", "note": "[Present compound 91, 6-(4-trifluoromethylbenzyloxy)benzo[b]thiophene-2-carboxylic acid]", "relative green leaf area at 10 ppm": "≥ 5"},
      {"compound": "O=C(O)c1ccc2sc(C(=O)O)cc2c1", "note": "[Present compound 53, benzo[b]thiophene-2,5-dicarboxylic acid]", "relative green leaf area at 10 ppm": "≥ 5"},
      {"compound": "O=C(O)c1cc2c([N+](=O)[O-])cccc2s1", "note": "[Present compound 17, 4-nitrobenzo[b]thiophene-2-carboxylic acid]", "relative green leaf area at 10 ppm": "≥ 5"},
      {"compound": "Cc1ccc(S(=O)(=O)Nc2ccc3sc(C(=O)O)cc3c2)cc1", "note": "[Present compound 75, 5-[(4-methylphenylsulfonyl)amino]benzo[b]thiophene-2-carboxylic acid]", "relative green leaf area at 10 ppm": "≥ 5"},
      {"compound": "NC(=O)c1ccc2sc(C(=O)O)cc2c1", "note": "[Present compound 59, 5-aminocarbonylbenzo[b]thiophene-2-carboxylic acid]", "relative green leaf area at 10 ppm": "≥ 5"},
      {"compound": "O=C(O)c1cc2c(I)cccc2s1", "note": "[Present compound 14]", "relative green leaf area at 10 ppm": "≥ 5"},
      {"compound": "CN(C)c1c(C(=O)O)sc2ccc(C(F)(F)F)cc12", "note": "[Present compound 110, 3-(N,N-dimethylamino)-5-trifluoromethylbenzo[b]thiophene-2-carboxylic acid]", "relative green leaf area at 10 ppm": "≥ 5"},
      {"compound": "O=C(O)c1cc2cc(NC(=O)C(F)(F)F)ccc2s1", "note": "[Present compound 70, 5-(trifluoroacetylamino)benzo[b]thiophene-2-carboxylic acid]", "relative green leaf area at 10 ppm": "≥ 5"},
      {"compound": "O=C(O)c1cc2cc(Cl)ccc2s1", "note": "[Present compound 6, 5-chlorobenzo[b]thiophene-2-carboxylic acid]", "relative green leaf area at 10 ppm": "≥ 5"},
      {"compound": "O=C(O)c1cc2cc(S(F)(F)(F)(F)F)ccc2s1", "note": "[Present compound 101, 5-pentafluorosulfanylbenzo[b]thiophene-2-carboxylic acid]", "relative green leaf area at 10 ppm": "≥ 5"},
      {"compound": "O=C(O)c1cc2cc(O)ccc2s1", "note": "[Present compound 77]", "relative green leaf area at 10 ppm": "≥ 5"},
      {"compound": "O=C(O)c1sc2ccccc2c1C(F)(F)F", "note": "[Present compound 26, 3-(trifluoromethyl)benzo[b]thiophene-2-carboxylic acid]", "relative green leaf area at 10 ppm": "≥ 5"},
      {"compound": "O=C(O)c1cc2cccc(O)c2s1", "note": "[Present compound 79]", "relative green leaf area at 10 ppm": "≥ 5"},
      {"compound": "O=C(O)c1cc2cc(-c3cccnc3)ccc2s1", "note": "[Present compound 45, 5-(3-pyridyl)benzo[b]thiophene-2-carboxylic acid]", "relative green leaf area at 10 ppm": "≥ 5"}
    ]}
  ]
}
